Test results as given in patent US20250197428A1, “INHIBITORS OF KIF18A AND USES THEREOF” (ACCENT THERAPEUTICS, INC., priority 2022, published 2025).
Like-named read-outs stand apart in the source and are kept apart here.

Experiments:
OVCAR-3 cells = experiment: In vitro anti-proliferative activity assay in cancer cell line OVCAR-3 (CellTiter-Glo, 4- or 7-day); type: cell-based; conditions: Homo sapiens, read-out: OVCAR-3 cellular antiproliferation assay IC50
KIF18A = KIF18A (Homo sapiens (Human), UniProt Q8NI77); experiment: KIF18A Biochemical Assay (ATPase, ADP-Glo)
[1] = OVCAR-3, assay duration not indicated

Sequence of KIF18A (Q8NI77 1-367): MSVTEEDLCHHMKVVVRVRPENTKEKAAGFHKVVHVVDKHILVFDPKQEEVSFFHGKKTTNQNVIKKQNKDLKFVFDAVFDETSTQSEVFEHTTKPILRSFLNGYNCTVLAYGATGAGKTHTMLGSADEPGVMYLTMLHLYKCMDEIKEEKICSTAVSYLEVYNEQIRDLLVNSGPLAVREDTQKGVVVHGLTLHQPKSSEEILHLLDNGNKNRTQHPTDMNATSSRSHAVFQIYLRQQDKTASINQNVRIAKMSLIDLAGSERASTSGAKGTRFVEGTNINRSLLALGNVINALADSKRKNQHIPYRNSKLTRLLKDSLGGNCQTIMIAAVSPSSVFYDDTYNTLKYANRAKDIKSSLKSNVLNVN
Sequence of KIF18A (P02550 whole entry partner): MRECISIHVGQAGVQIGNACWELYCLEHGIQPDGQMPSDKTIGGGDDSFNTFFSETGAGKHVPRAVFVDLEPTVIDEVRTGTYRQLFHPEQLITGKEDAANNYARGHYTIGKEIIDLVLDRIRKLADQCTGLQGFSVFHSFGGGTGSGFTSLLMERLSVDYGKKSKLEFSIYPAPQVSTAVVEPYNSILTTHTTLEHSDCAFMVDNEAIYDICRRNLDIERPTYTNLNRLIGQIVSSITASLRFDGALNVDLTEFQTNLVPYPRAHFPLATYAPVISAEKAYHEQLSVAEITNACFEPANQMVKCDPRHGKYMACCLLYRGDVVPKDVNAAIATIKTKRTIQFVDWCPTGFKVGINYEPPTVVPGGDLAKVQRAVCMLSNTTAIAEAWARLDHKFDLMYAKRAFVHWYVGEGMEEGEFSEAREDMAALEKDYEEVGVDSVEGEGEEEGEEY
Sequence of KIF18A (P02554 whole entry partner): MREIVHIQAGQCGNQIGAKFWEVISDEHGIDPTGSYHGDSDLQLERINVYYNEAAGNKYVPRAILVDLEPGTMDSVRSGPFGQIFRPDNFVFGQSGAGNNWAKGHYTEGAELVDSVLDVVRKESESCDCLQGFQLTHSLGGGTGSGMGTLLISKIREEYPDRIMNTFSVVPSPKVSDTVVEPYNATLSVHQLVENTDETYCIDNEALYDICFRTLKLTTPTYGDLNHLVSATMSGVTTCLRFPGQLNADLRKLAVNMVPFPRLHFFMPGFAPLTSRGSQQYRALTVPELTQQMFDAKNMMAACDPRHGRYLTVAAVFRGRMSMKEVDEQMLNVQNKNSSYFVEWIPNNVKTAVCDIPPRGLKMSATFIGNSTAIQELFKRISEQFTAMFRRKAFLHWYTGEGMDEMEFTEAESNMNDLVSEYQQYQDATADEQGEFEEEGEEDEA

SMILES | IC50 (OVCAR-3 cells; OVCAR-3, 168 h, 7-day assay) [nM] | IC50 (KIF18A) [nM] | IC50 (OVCAR-3 cells; OVCAR-3, 96 h, 4-day assay) [nM] | IC50 (OVCAR-3 cells; [1]) [nM]
Cc1cc(NC(=O)c2c(F)cc(NS(=O)(=O)CCO)cc2N2CC[C@]3(C)C[C@@H]3C2)nc(N2CCC(F)(F)CC2)n1 (single isomer, unassigned) [Example 31a] | 100 to 500 | – | – | –
Cc1cc(NC(=O)c2c(F)cc(NS(=O)(=O)CCO)cc2N2CC[C@@]3(C)C[C@H]3C2)nc(N2CCC(F)(F)CC2)n1 (single isomer, unassigned) [Example 31b] | 100 to 500 | – | – | –
COC[C@]12CCN(c3cc(NS(=O)(=O)CCO)ccc3C(=O)Nc3cc(C)nc(N4CCC(F)(F)CC4)n3)C[C@H]1C2 (single isomer, unassigned) [Example 49a] | 100 to 500 | < 100 | – | –
Cc1cc(NC(=O)c2ccc(NS(=O)(=O)CCO)cc2N2CC[C@]3(F)CC[C@@H]3C2)nc(N2CCC(F)(F)CC2)n1 (single isomer, unassigned) [Example 50a] | 100 to 500 | < 100 | – | –
C[Si]1(C)CCN(c2cc(NS(=O)(=O)CCO)ccc2C(=O)Nc2cccc(N3CCC(F)(F)CC3)n2)CC1 [Example 3, N-(6-(4,4-difluoropiperidin-1-yl)pyridin-2-yl)-2-(4,4-dimethyl-1,4-azasilinan-1-yl)-4-((2-hydroxyethyl)sulfonamido)benzamide] | – | < 100 | < 100 | –
C[Si]1(C)CCN(c2cc(NS(=O)(=O)CCO)c(F)cc2C(=O)Nc2ccnc(N3CCC(F)(F)CC3)n2)CC1 [Example 13] | – | < 100 | 500 to 1000 | –
C[Si]1(C)CCN(c2cc(NS(=O)(=O)CCO)ccc2C(=O)Nc2ccnc(C3CC3)n2)CC1 [Example 15] | – | < 100 | > 1000 | –
CC1CN(c2cccc(NC(=O)c3ccc(S(=O)(=O)NCCO)cc3N3CC[Si](C)(C)CC3)n2)CCO1 (stereo not drawn) [Example 18] | – | < 100 | < 100 | –
CC1CN(c2cccc(NC(=O)c3ccc(NS(=O)(=O)CCO)cc3N3CC[Si](C)(C)CC3)n2)CCO1 (stereo not drawn) [Example 19] | – | < 100 | < 100 | –
C[Si]1(C)CCN(c2cc(NS(=O)(=O)CCO)ccc2C(=O)Nc2cccc(S(=O)(=O)C3CCCC3)n2)CC1 [Example 22] | – | 100 to 500 | < 100 | –
C[Si]1(C)CCN(c2cc(NS(=O)(=O)CCO)ccc2NC(=O)c2ccnc(N3CCC(F)(F)CC3)n2)CC1 [Example 23] | – | 100 to 500 | 100 to 500 | –
CC(C)(C)NS(=O)(=O)c1cccc(NC(=O)c2ccc(S(=O)(=O)C3(C)COC3)cc2N2CC[Si](C)(C)CC2)c1 [Example 24] | – | – | 100 to 500 | –
O=C(Nc1ccnc(N2CCC(F)(F)CC2)n1)c1ccc2c(cnn2CCO)c1N1CCC2(CC1)CC2 [Example 25] | – | > 1000 | – | –
Cc1cc(NC(=O)c2ncc(NS(=O)(=O)CCO)cc2N2CC[Si](C)(C)CC2)nc(N2CCC(F)(F)CC2)n1 [Example 26] | – | < 100 | 100 to 500 | –
C[Si]1(C)CCN(c2cnccc2C(=O)Nc2cccc(S(=O)(=O)N3CCC(F)(F)CC3)c2)CC1 [Example 27] | – | > 1000 | > 1000 | –
Cc1cc(NC(=O)c2ccc(NS(=O)(=O)CCO)cc2N2CC[C@]3(C(F)F)C[C@@H]3C2)nc(N2CCC(F)(F)CC2)n1 [Example 29a, 2-((1S,6R)-6-(difluoromethyl)-3-azabicyclo[4.1.0]heptan-3-yl)-N-(2-(4,4-difluoropiperidin-1-yl)-6-methylpyrimidin-4-yl)-4-((2-hydroxyethyl)sulfonamido)benzamide] | – | < 100 | < 100 | –
Cc1cc(NC(=O)c2ccc(NS(=O)(=O)CCO)cc2N2CCC3(CO)CC3C2)nc(N2CCC(F)(F)CC2)n1 (stereo not drawn) [Example 30, N-(2-(4,4-difluoropiperidin-1-yl)-6-methylpyrimidin-4-yl)-4-((2-hydroxyethyl)sulfonamido)-2-(6-(hydroxymethyl)-3-azabicyclo[4.1.0]heptan-3-yl)benzamide] | – | 100 to 500 | > 1000 | –
Cc1cc(NC(=O)c2ccc(NS(C)(=O)=O)cc2N2CC[C@@]3(C)C[C@H]3C2)nc(N2CCC(F)(F)CC2)n1 [Example 32] | – | < 100 | > 1000 | –
Cc1cc(NC(=O)c2ccc(NS(C)(=O)=O)cc2N2CC[C@]3(C)C[C@@H]3C2)nc(N2CCC(F)(F)CC2)n1 [Example 33] | – | < 100 | 100 to 500 | –
Cc1cc(NC(=O)c2c(F)cc(NS(=O)(=O)CCO)cc2N2CC[C@]3(C)C[C@@H]3C2)nc(N2CCC(F)(F)CC2)n1 [Example 38] | – | < 100 | – | 100 to 500
Cc1cc(NC(=O)c2ccc(NS(=O)(=O)CCO)cc2N2CC[C@@]3(CO)C[C@H]3C2)nc(N2CCC(F)(F)CC2)n1 [Example 39] | – | 100 to 500 | > 1000 | –
Cc1cc(NC(=O)c2ccc(NS(=O)(=O)CCO)cc2N2CC[C@]3(CO)C[C@@H]3C2)nc(N2CCC(F)(F)CC2)n1 [Example 40] | – | > 1000 | > 1000 | –
Cc1cc(NC(=O)c2ccc(NS(=O)(=O)CCO)cc2N2CCC3(C(F)F)CC3C2)nc(N2CCC(F)(F)CC2)n1 (stereo not drawn) [Example 41] | – | < 100 | – | < 100
Cc1cc(NC(=O)c2ccc(NS(=O)(=O)NCCO)cc2N2CC[C@@]3(C)C[C@H]3C2)nc(N2CCC(F)(F)CC2)n1 [Example 42] | – | < 100 | > 1000 | –
Cc1cc(NC(=O)c2ccc(NS(=O)(=O)NCCO)cc2N2CC[C@]3(C)C[C@@H]3C2)nc(N2CCC(F)(F)CC2)n1 [Example 43] | – | < 100 | > 1000 | –
O=C(Nc1cccc(S(=O)(=O)N2CCC(F)(F)CC2)c1)c1cccnc1N1CCC2CC2C1 (stereo not drawn) [Example 44] | – | > 1000 | – | –

SMILES | IC50 (OVCAR-3 cells; OVCAR-3, 168 h, 7-day assay) [nM] | IC50 (KIF18A) [nM] | IC50 (OVCAR-3 cells; OVCAR-3, 96 h, 4-day assay) [nM] | IC50 (OVCAR-3 cells; [1]) [nM]
CC12CCN(c3ncccc3C(=O)Nc3cccc(S(=O)(=O)N4CCC(F)(F)CC4)c3)CC1C2 (stereo not drawn) [Example 45] | – | – | > 1000 | –
C[C@]12CCN(c3ncccc3C(=O)Nc3cccc(S(=O)(=O)N4CCC(F)(F)CC4)c3)C[C@H]1C2 [Example 46] | – | – | > 1000 | –
C[C@@]12CCN(c3ncccc3C(=O)Nc3cccc(S(=O)(=O)N4CCC(F)(F)CC4)c3)C[C@@H]1C2 [Example 47] | – | > 1000 | – | –
Cc1cc(NC(=O)c2ccc(S(=O)(=O)NCCO)cc2N2CC[C@]3(C)C[C@@H]3C2)nc(N2CCC(F)(F)CC2)n1 [Example 52] | 100 to 500 | < 100 | – | –
Cc1cc(NC(=O)c2ccc(S(=O)(=O)NCCO)cc2N2CC[C@@]3(C)C[C@H]3C2)nc(N2CCC(F)(F)CC2)n1 [Example 53] | 100 to 500 | < 100 | – | –
Cc1cc(NC(=O)c2ccc(NS(C)(=O)=O)cc2N2CC[C@@]3(C(F)F)C[C@H]3C2)nc(N2CCC(F)(F)CC2)n1 [Example 55] | 500 to 1000 | < 100 | – | –
Cc1cc(NC(=O)c2ccc(NS(=O)(=O)NCCO)cc2N2CC[C@@]3(C(F)F)C[C@H]3C2)nc(N2CCC(F)(F)CC2)n1 [Example 57] | > 1000 | 100 to 500 | – | –
Cc1cc(NC(=O)c2ccc(NS(=O)(=O)CCO)cc2N2CC[C@@]3(C(F)F)C[C@H]3C2)nc(N2CCC(F)(F)CC2)n1 [Example 59] | 100 to 500 | < 100 | – | –
O=C(Nc1ccnc(N2CCC(F)(F)CC2)n1)c1ccc(NS(=O)(=O)CCO)cc1N1CC[C@@]2(C(F)F)C[C@H]2C1 [Example 61] | 100 to 500 | < 100 | – | –
Cc1cc(NC(=O)c2ccc(NS(=O)(=O)CCO)cc2N2CC[C@]3(C)C[C@@H]3C2)nc(N2CCC(F)(F)CC2)n1 [Example 62] | < 100 | – | – | –
Cc1cc(NC(=O)c2ccc(NS(=O)(=O)CCO)cc2N2CC[C@@]3(C)C[C@H]3C2)nc(N2CCC(F)(F)CC2)n1 [Example 63] | < 100 | – | – | –
O=C(Nc1cccc(N2CCC(F)(F)CC2)n1)c1ccc(NS(=O)(=O)CCO)cc1N1CC[C@]2(C(F)F)C[C@@H]2C1 [Example 64] | < 100 | < 100 | – | –
Cc1cc(NC(=O)c2ccc(NS(=O)(=O)CCO)cc2N2CC[C@]3(C(F)F)C[C@@H]3C2)nc(N2CCC(F)(F)CC2)c1 [Example 65] | < 100 | < 100 | – | –
Cc1cc(NC(=O)c2ccc(NS(=O)(=O)CCO)cc2N2CC[C@]3(C(F)F)C[C@@H]3C2)nc(OC[C@H](O)C(F)(F)F)n1 [Example 67] | > 1000 | > 1000 | – | –
Cc1cc(NC(=O)c2ccc(NS(=O)(=O)CCO)cc2N2CC[C@@]3(C(F)F)C[C@H]3C2)nc(OC[C@H](O)C(F)(F)F)n1 [Example 68] | > 1000 | > 1000 | – | –
O=C(Nc1ccnc(N2CCC(F)(F)CC2)n1)c1c(F)cc(NS(=O)(=O)CCO)cc1N1CC[C@]2(C(F)F)C[C@@H]2C1 [Example 69] | > 1000 | < 100 | – | –
Cc1cc(NC(=O)c2c(F)cc(NS(=O)(=O)CCO)cc2N2CC[C@]3(C(F)F)C[C@@H]3C2)nc(N2CCC(F)(F)CC2)n1 [Example 71] | > 1000 | 100 to 500 | – | –
Cc1cc(NC(=O)c2ccc(NS(=O)(=O)CCO)cc2N2CC[C@]3(C(F)F)C[C@@H]3C2)nc(OC[C@@H](O)C(F)(F)F)n1 [Example 73] | > 1000 | > 1000 | – | –
Cc1cc(NC(=O)c2ccc(NS(=O)(=O)CCO)cc2N2CC[C@@]3(C(F)F)C[C@H]3C2)nc(OC[C@@H](O)C(F)(F)F)n1 [Example 74] | > 1000 | > 1000 | – | –
O=C(Nc1ccnc(C2CCC(F)(F)CC2)n1)c1ccc(NS(=O)(=O)CCO)cc1N1CC[C@@]2(C(F)F)C[C@H]2C1 [Example 76] | 100 to 500 | < 100 | – | –
C[Si]1(C)CCN(c2cc(NS(=O)(=O)CCO)ccc2C(=O)Nc2ccnc(S(=O)(=O)C3CCCC3)n2)CC1 [Example 89] | 100 to 500 | – | – | –
C[C@H]1CN(c2nccc(C(=O)Nc3ccc(NS(=O)(=O)CCO)cc3N3CC[Si](C)(C)CC3)n2)CCO1 [Example 91] | 100 to 500 | – | – | –
CC[Si]1(CC)CCN(c2ncccc2C(=O)Nc2cccc(S(=O)(=O)N3CCC(F)(F)CC3)c2)CC1 [Example 92] | > 1000 | – | – | –
C[Si]1(C)CCN(c2ncccc2C(=O)Nc2cccc(S(=O)(=O)N3CCC(F)(F)CC3)c2)C1 [Example 93] | > 1000 | – | – | –
C[Si]1(C)CCN(c2cc(NS(=O)(=O)CCO)c(F)cc2NC(=O)c2cccc(N3CCC(F)(F)CC3)n2)CC1 [Example 95] | – | – | < 100 | –
